The values below come from PMC11597202, “Novel Thiazole-Fused [4,5-g] or [5,4-g]Quinazolin-8-ones and Their Quinazoline Analogues: Synthesis and Biological Evaluation” (Pharmaceuticals, 2024).

One series has as its target T1, GSK-3β (Homo sapiens, UniProt P49841).
T1 construct: host or cells: Sf9 insect cells (baculovirus)
The series can be described thus: ADP-Glo kinase inhibition assay, GSK-3β. Type of series: biochemical. The conditions noted are these: percentage of maximum activity of the DMSO control, mean n = 2, 10 µM ATP, read-out: Residual activity GSK-3β; for remaining activity at 1 µM: 1 μM compound; for remaining activity at 10 µM: 10 μM compound. As for the experimental part:
(§1) Kinase enzymatic activities were assayed in 384-well plates using the ADP-Glo^TM assay kit (Promega, Madison, WI, USA) according to the recommendations of the manufacturer. This luminescent ADP detection assay was described by Zegzouti and co-workers and provides a homogeneous and high-throughput screening method to measure kinase activity by quantifying the amount of ADP produced during a kinase reaction. Briefly, the reactions were carried out in a final volume of 6 µL for 30 min at 30 °C in an appropriate kinase buffer (10 mM MgCl2, 1 mM EGTA, 1 mM DTT, 25 mM Tris-HCl pH 7.5, 50 µg/mL heparin), with peptide or protein as substrate in the presence of 10 µM ATP. Peptide substrates were obtained from ProteoGenix (Schiltigheim, France) or Sigma for Histone H1, Poly (L-glutamic acid–L-tyrosine) sodium salt, Casein and MBP. After that, 6 µL of ADP-Glo^TM Kinase Reagent was added to stop the kinase reaction. After an incubation time of 50 min at room temperature (rt), 12 µL of Kinase Detection Reagent was added for one hour at rt. The transmitted signal was measured using the Envision (PerkinElmer, Waltham, MA, USA) microplate luminometer and expressed as Relative Light Units (RLUs). Kinase activities are expressed as percentages of remaining kinase activities detected after treatment with 1 or 10 µM of the tested compounds. The maximum kinase activity was measured in the absence of inhibitor but with an equivalent dose of DMSO (solvent of the tested compounds).
(§2) 3. Kinase inhibition assays
(§3) Kinase enzymatic activities were assayed in 384-well plates using the ADP-GloTM assay kit (Promega, Madison, WI) according to the recommendations of the manufacturer. This luminescent ADP detection assay was described by Zegzouti and co-workers and provides a homogeneous and high-throughput screening method to measure kinase activity by quantifying the amount of ADP produced during a kinase reaction. Briefly, the reactions were carried out in a final volume of 6 µl for 30 min at 30°C in appropriate kinase buffer (10 mM MgCl2, 1 mM EGTA, 1 mM DTT, 25 mM Tris-HCl pH 7.5, 50 µg/mL heparin), with peptide or protein as substrate in the presence of 10 µM ATP. Peptide substrates were obtained from ProteoGenix (Schiltigheim, France) or Sigma for Histone H1, Poly (L-glutamic acid – L-tyrosine) sodium salt, Casein and MBP. After that, 6 µL of ADP-GloTM Kinase Reagent was added to stop the kinase reaction. After an incubation time of 50 min at room temperature (rt), 12 µL of Kinase Detection Reagent was added for 1 h at rt. The transmitted signal was measured using the Envision (PerkinElmer, Waltham, MA) microplate luminometer and expressed in Relative Light Unit (RLU). Kinase activities are expressed in percentages of remaining kinase activities detected after treatment with 1 or 10 µM of the tested compounds. The maximal kinase activity is measured in the absence of inhibitor but with an equivalent dose of DMSO (solvent of the tested compounds).
(§4) Table. Human protein kinases tested in the panel: CDK9, HASPIN, PIM1, GSK3b, CK1ε, JAK3, CLK1 […]
(§5) 1 Peptide substrates were obtained from ProteoGenix (Schiltigheim, France) or Sigma for Histone H1, Poly (L-glutamic acid – L-tyrosine) sodium salt, Casein and MBP; 2 “Sp” stands for phosphorylated serine.
(§6) Controls inhibitors: To validate each kinase assay, the following model inhibitors were used under the same conditions than the tested compounds: Staurosporine from Streptomyces sp.
A general note: ADP-Glo turns the ADP formed in a reaction into a luminescent signal.

The target of the next series is T2, CK-1ε (Homo sapiens, UniProt P49674).
T2 construct: host or cells: Sf9 insect cells (baculovirus)
T2 sequence (P49674 whole entry): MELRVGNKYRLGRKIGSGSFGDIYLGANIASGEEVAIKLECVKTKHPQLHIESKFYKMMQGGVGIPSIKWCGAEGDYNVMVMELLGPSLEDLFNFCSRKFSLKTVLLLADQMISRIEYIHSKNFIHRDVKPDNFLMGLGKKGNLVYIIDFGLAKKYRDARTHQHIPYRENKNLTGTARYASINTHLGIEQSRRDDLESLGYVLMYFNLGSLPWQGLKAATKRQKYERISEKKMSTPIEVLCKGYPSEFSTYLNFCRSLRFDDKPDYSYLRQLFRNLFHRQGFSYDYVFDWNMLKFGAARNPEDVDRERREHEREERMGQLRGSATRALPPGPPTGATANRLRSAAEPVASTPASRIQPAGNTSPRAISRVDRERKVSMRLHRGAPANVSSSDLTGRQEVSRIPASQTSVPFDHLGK
The series can be described thus: ADP-Glo kinase inhibition assay, CK-1ε. It counts as biochemical. The conditions noted are these: percentage of maximum activity of the DMSO control, mean n = 2, 10 µM ATP, read-out: Residual activity CK-1ε; for remaining activity at 1 µM: 1 μM compound; for remaining activity at 10 µM: 10 μM compound. Here is the method:
as §1, §2, §3, §4, §5, §6

Series [1] can be described thus: In vitro cytotoxic assay, MDA-MB-231. Further: 0.1-25 µM tested. Type of series: cell-based. Conditions: human, MDA-MB-231 cells (breast cancer cell line); read-out: In vitro cytotoxic activity IC50, MBA-MB-231. Here is the method:
Skin normal fibroblastic cells were purchased from Lonza (Basel, Switzerland). […] All culture media were supplemented by 10% of FBS, 1% of penicillin–streptomycin and 2 mM glutamine.
Chemicals were solubilized in DMSO at a concentration of 10 mM (stock solution) and diluted in culture medium to the desired final concentrations. […] Cells were plated in 96-well plates (4000 cells/well). Twenty-four hours after seeding, the cells were exposed to chemicals. […] Image acquisition and analysis were performed using a Cellomics ArrayScan VTI/HCS Reader (ThermoScientific, Les Ulis, France). The survival percentages were calculated as the percentage of cell number after compound treatment over cell number after DMSO treatment. The relative IC50 values were calculated using the curve fitting XLfit 5.5.0.5 (idbs) integrated in Microsoft Excel as an add-on.
4.3.1. Cell culture. Skin normal fibroblastic cells are purchased from Lonza (Basel, Switzerland). Huh7- […]
from ATCC (American Type Culture Collection). […]
supplemented by 10% of FBS, 1% of penicillin-streptomycin and 2 mM glutamine.
4.3.2. Cytotoxic assay. Chemicals were solubilized in DMSO at a concentration of 10 mM (stock solution) and diluted in culture medium to the desired final concentrations. The dose effect cytotoxic assays (IC50 determination) were performed by increasing the concentrations of each chemical (final well […]
Cells were plated in 96-well plates
(4000 cells/well). Twenty-four hours after seeding, cells were exposed to chemicals. After 48h of treatment, cells were washed in PBS and fixed in cooled 90% ethanol/5% acetic acid for 20 min and the […]
Image acquisition and analysis were performed using a Cellomics ArrayScan VTI/HCS Reader (ThermoScientific). The survival percentages were calculated as the percentage of cell number after compound treatment over cell number after DMSO treatment. The relative IC50 were calculated using the curve fitting XLfit 5.5.0.5 (idbs) integrated in Microsoft Excel as an add-on. The 4 Parameter Logistic Model or Sigmoidal Dose-Response Model describing the sigmoid-shaped response pattern was used (fit = (A+[(B-A)/(1+[(C/x)^D])]) where fit is the response and X is the tested concentration of the compound. The lower asymptote is A (also referred to as the bottom of the curve or lower plateau or the min) and the upper asymptote is B (also referred to as the top of the curve or upper plateau or the max). The slope of the linear part of the curve is described by the factor D. The parameter C is the concentration corresponding to the response midway between A and B. C is called “relative IC50” because it refers to the maximum response obtained by a […]
The results are represented as the mean ± standard error (SE) calculated from at least three independent experiments.

T1 sequence (P49841 whole entry): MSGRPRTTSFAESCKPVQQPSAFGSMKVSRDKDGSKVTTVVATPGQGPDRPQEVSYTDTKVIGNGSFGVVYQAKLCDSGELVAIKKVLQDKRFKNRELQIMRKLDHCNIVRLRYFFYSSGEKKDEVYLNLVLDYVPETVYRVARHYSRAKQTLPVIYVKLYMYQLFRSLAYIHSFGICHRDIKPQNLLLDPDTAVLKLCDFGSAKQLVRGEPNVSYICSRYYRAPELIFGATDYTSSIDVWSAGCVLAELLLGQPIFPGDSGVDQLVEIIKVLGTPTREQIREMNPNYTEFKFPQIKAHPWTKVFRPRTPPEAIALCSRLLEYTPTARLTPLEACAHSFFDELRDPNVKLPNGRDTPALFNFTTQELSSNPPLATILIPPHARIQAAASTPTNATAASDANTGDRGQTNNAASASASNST

Turning to `COC(=N)c1nc2ccc3c(=O)n(Cc4ccccc4)cnc3c2s1` [Compound 6d, Methyl 7-benzyl-6-oxo-6,7-dihydrothiazolo[4,5-h]quinazoline-2-carbimidate], at GSK-3β, the remaining activity at 1 µM was found to be 94% and the remaining activity at 10 µM was 105%. In addition, on CK-1ε, the remaining activity at 1 µM was 92% and the remaining activity at 10 µM was 98%. In addition, the 50% inhibitory concentration (IC50) at 48 h in series [1] amounted to 11 µM.

For `COC(=N)c1nc2cc3c(Nc4ccc(OC)cc4F)ncnc3cc2s1` [Compound 15a, Methyl 8-[(2-fluoro-4-methoxyphenyl)amino]thiazolo[4,5-g]quinazoline-2-carbimidate], at GSK-3β, the remaining activity at 1 µM was found to be 90% and the remaining activity at 10 µM stood at 70%. In addition, at CK-1ε, the remaining activity at 1 µM stood at 95% and the remaining activity at 10 µM was found to be 72%. In addition, the IC50 at 48 h in series [1] was 9 µM.

For the compound `COC(=N)c1nc2cc3c(=O)n(Cc4ccccc4)cnc3cc2s1` [Compound 6a, Methyl 7-benzyl-8-oxo-7,8-dihydrothiazolo[4,5-g]quinazoline-2-carbimidate], at GSK-3β, the remaining activity at 1 µM stood at 94% and the remaining activity at 10 µM was 76%. Besides, on CK-1ε, the remaining activity at 1 µM worked out at 100% and the remaining activity at 10 µM was 69%. In addition, in series [1], the 50% inhibitory concentration (IC50) at 48 h was determined as 20 µM.

In the case of `COC(=N)c1nc2ccc3ncn(Cc4ccccc4)c(=O)c3c2s1` [Compound I, methyl 8-benzyl-9-oxo-8,9-dihydrothiazolo[5,4-f]quinazoline-2-carbimidate, reference compound], the remaining activity at 1 µM at GSK-3β was 73%; at CK-1ε, 92%. Besides, the values for the remaining activity at 10 µM at GSK-3β and on CK-1ε were 23% and 70%, respectively. In addition, the IC50 at 48 h in series [1] was determined as 21 µM.

Turning to `COC(=N)c1nc2ccc3ncnc(Nc4ccc(OC)cc4F)c3c2s1` [Compound II, methyl 9-[(2-fluoro-4-methoxyphenyl)amino]thiazolo[5,4-f]quinazoline-2-carbimidate, reference compound], in series [1], the half-maximal inhibitory concentration (IC50) at 48 h amounted to 5 µM.

Regarding `COC(=N)c1nc2cc3ncnc(Nc4ccc(OC)cc4F)c3cc2s1` [Compound 15b, Methyl 8-[(2-fluoro-4-methoxyphenyl)amino]thiazolo[5,4-g]quinazoline-2-carbimidate], the remaining activity at 1 µM came to 101% at GSK-3β and 98% on CK-1ε. Further, the remaining activity at 10 µM at GSK-3β came out at 104%; at CK-1ε, 108%.

For `COC(=N)c1nc2cc3ncn(Cc4ccccc4)c(=O)c3cc2s1` [Compound 6b, Methyl 7-benzyl-8-oxo-7,8-dihydrothiazolo[5,4-g]quinazoline-2-carbimidate], at GSK-3β, the remaining activity at 1 µM is 101% and the remaining activity at 10 µM turned out to be 107%. Further, at CK-1ε, the remaining activity at 1 µM came to 111% and the remaining activity at 10 µM was 103%. Besides, the IC50 at 48 h in series [1] worked out at 3 µM.

With `COC(=N)c1nc2c(ccc3c(=O)n(Cc4ccccc4)cnc32)s1` [Compound 6c, Methyl 7-benzyl-6-oxo-6,7-dihydrothiazolo[5,4-h]quinazoline-2-carbimidate], on GSK-3β, the remaining activity at 1 µM came to 81% and the remaining activity at 10 µM was determined as 91%. Moreover, at CK-1ε, the remaining activity at 1 µM was 112% and the remaining activity at 10 µM was 87%. Further, in series [1], the IC50 at 48 h came to 13 µM.

The term IC50 denotes the concentration that gives 50% inhibition.
